# Reference: US9827237B2, “Compounds useful for treating diseases caused by retroviruses” (ABIVAX, priority 2013, dated 2017)
# Test system: HTLV-1
# Test: Inhibition of HTLV-1: Tax-1 protein expression by western blotting in HUT102 cells
# Format: cell-based, Human T-lymphotropic virus (HTLV)
# Conditions: HUT102 (HTLV-1 chronically infected) cells, 10 μM daily for three days; western blot, normalised by tubulin, related to DMSO treated cells; triplicate
# Protocol: To determine whether the compounds described above could act as HTLV inhibitors, a screen was performed on HUT102 (HTLV-1 chronically infected) cells.
# Cells were plated at a density of 150 000 cells per well in 96 wells plates and treated daily with 10 μM of compounds for three days.
# Cells were then harvested and an aliquot was used for cytotoxicity evaluation with Cell Titer (Promega).
# The remaining cells was washed in phosphate buffer saline (PBS) and lysed for protein quantification with Bradford Assay (Sigma).
# Then, HTLV Tax-1 protein expression was evaluated from 30 μg of total proteins by western blotting analysis.
# Tax-1 expression was normalised by tubulin expression and related to control (DMSO treated) cells. Each compound was tested in triplicate.
smiles,measurement,value
"COc1ccc(Nc2ccc3c(N4CCN(C)CC4)ccnc3c2)cc1 [Compound 166, N-(4-methoxyphenyl)-4-(4-methylpiperazin-1-yl)quinolin-7-amine]",reduced Tax-1 expression when compared to control,80%
